Results on three compounds are retold here after patent publication EP4151201A1, “SHEET PRODUCT” (Kao Corporation, priority 2020, dated 2021).

This data set is described as follows: Krafft point of the anionic surfactant. The format is physicochemical. The conditions noted are these: Krafft point at 10 mass% in aqueous solution; unit not given, Krafft points in °C. How it is done: The present invention uses a view that the Krafft point is a melting point of a hydrated solid of a surfactant. That is, the Krafft point is the temperature at which a surfactant precipitates when an aqueous solution thereof is cooled. In some kinds of surfactants, the Krafft point changes depending on the concentration. In the present invention, an anionic surfactant having a Krafft point of 45°C or more at a concentration of 10 mass% in an aqueous solution is used. The Krafft point can be measured using a differential scanning calorimetry.
Consider `CCCCCCCCCCCCCCCCCC(=O)[O-].[Na+]` [Sodium stearate], for which the “Kp (Krafft point)” value is reported as “Sodium stearate (Kp = 79)”. As for `CCCCCCCCCCCCCCCCCC(=O)N(C)CCS(=O)(=O)[O-].[Na+]` [Sodium N-stearoyl-N-methyltaurate], the “Kp (Krafft point)” value was “Sodium N-stearoyl-N-methyltaurate (Kp = 50) (Nikkol SMT, manufactured by Nikko Chemicals Co., Ltd.)”.

For the compound `CCCCCCCCCCCC(=O)[O-].[Na+]` [Sodium laurate], the “Kp (Krafft point)” value was “Sodium laurate (Kp ≈ 38)”.
